# Experimental data reported in patent publication US20080038374A1, “New Use” (Lipopeptide AB, priority 2004, published 2008).
# Legend:
# [1] = tested on: hCAP18; assay: Expression of hCAP18 mRNA in human primary keratinocytes by Real-Time PCR; format: cell-based
# Experimental: Human neonatal epidermal keratinocytes were obtained from Cascade Biologics, Inc. (Lot # 1C1145; Port-land, OR) and cultured in EpiLife serum-free keratinocyte growth medium (Cascade Biologics, Inc.) containing growth supplements and a calcium concentration of 0.06 mM. Cells at passage 3 were allowed to grow for three days to approximately 60% confluence. For calcium switch experiments, 1.5 mM CaCl2 (added from a 1 M stock solution) was added to the plates and after 48 hours the cells were regarded as differentiated (observed as an induction of mRNA expression of the two keratinocyte markers transglutaminase and cellular retinoic acid-binding protein II). The compounds assayed were 25-hydroxy-cholecalciferol (25-OH-D3), 1,25-dihydroxycholecalciferol (1,25-(OH)2-D3), and calcipotriol/MC 903 (Leo Pharmaceutical, Denmark). Their effect on hCAP18 expression was monitored by quantitivate PCR analysis.
# Keratinocytes were grown as above and treated with said compounds for 4 h. RNA was extracted with the RNeasy kit (Qiagen) and reverse transcribed with a first strand synthesis kit (Amersham-Pharmacia). RNA was quantified by Real-Time PCR on an ABI Prism 7700 (Applied Biosystems) using 5 ng of cDNA according to standard protocols. The samples were evaluated in triplicates. Sequences were 5′-[…]-3′ and 5′-[…]-3′ for the primers, and 5′-[…]-3′ for the fluorigenic probe. The samples were normalized by quantification of 18S-RNA (Assay on Demand, Applied Biosystems).
# To assess the specificity of the vitamin D regulation on the hCAP18 gene, the vitamin D3 precursor 7-dehydrocholesterol (7-DHC) was assayed at a concentration of 1 μM as in Example 1. 7-DHC had no effect on hCAP18 expression. […] Assays were performed and measured as above. The effect of 1,25-(OH)2-D3 is shown for comparison.
# [2] = tested on: dermatitis; settings: topical, 0.03-1.0 μg/g of composition; type of dermatitis not stated; cited from earlier work
# [3] = tested on: hCAP18 promoter; assay: Stimulation of the hCAP18 promoter at different concentrations (FIG. 4); format: cell-based, human; settings: tested at 1, 10, 100 and 1000 nM
# Experimental: To assess whether physiological levels were sufficient to induce the stimulation of the hCAP18 promoter, the study was performed at the different concentrations 1, 10, 100 and 1000 nM of 1,25-(OH)2-D3 and 25-OH-D3 (FIG. 4). […] The physiologic serum concentration of 25-OH-vitamin D3 is between 20 nM and 125 nM, whereas the 1,25-(OH)2-D3 is present in pM concentration. A dosage form of a vitamin D compound for topical administration includes for instance about 1-100, preferably 5-50 μg vitamin D compound per gram composition.
# [4] = tested on: acute wounds; settings: Wistar rats, intraperitonial; cited from earlier work
# [5] = tested on: angiogenesis; settings: cited from earlier work
compound,measurement,setting,value
"C=C1/C(=C\C=C2/CCC[C@]3(C)[C@@H]([C@H](C)/C=C/[C@H](C)C(C)(C)O)CC[C@@H]23)C[C@@H](O)C[C@@H]1O [1,25-(OH)2-D2, 1,25-dihydroxyergocalciferol]","activity on hCAP18 expression compared with 1,25-(OH)2-D3",[1]; concentration not given,"activity comparable to 1,25-(OH)-D3"
"C=C1/C(=C\C=C2/CCC[C@]3(C)[C@@H]([C@H](C)CCCC(C)C)CC[C@@H]23)C[C@@H](O)C[C@@H]1O [1α-OH-cholecalciferol, 1-alpha-hydroxycholecalciferol]",effect on dermatitis,[2],marked effect
"CC(C)CCC[C@@H](C)[C@H]1CC[C@H]2C3=CC=C4C[C@@H](O)CC[C@]4(C)[C@H]3CC[C@]12C [7-DHC, 7-dehydrocholesterol]",effect on hCAP18 expression,"[1]; 1 μM, as in Example 1",no effect
"C=C1CC[C@H](O)C/C1=C/C=C1\CCC[C@]2(C)[C@@H]([C@H](C)CC[C@@H](O)C(C)(C)O)CC[C@@H]12 [24,25-dihydroxycholecalciferol]",effect on dermatitis,[2],no effect
"C=C1CC[C@H](O)C/C1=C/C=C1\CCC[C@]2(C)[C@@H]([C@H](C)CCCC(C)(C)O)CC[C@@H]12 [25-OH-D3, 25-hydroxy-cholecalciferol]",level down to which a substantial portion of stimulation remained,[3],10 nM
"[Ca+2].[Cl-].[Cl-] [calcium, CaCl2]",increase of hCAP18 expression by induction of differentiation,"[1]; 1.5 mM CaCl2, 48 hours, keratinocytes",about 1.5 fold
C=C1CC[C@H](O)C/C1=C/C=C1\CCC[C@]2(C)[C@@H]([C@H](C)CCCC(C)C)CC[C@@H]12 [cholecalciferol],effect on dermatitis,[2],no effect
same,re-epithelization of acute wounds,[4],accelerates
same,wound breaking strength,[4],increases
C=C1CC[C@H](O)C/C1=C/C=C1\CCC[C@]2(C)[C@@H]([C@H](C)/C=C/[C@H](C)C(C)C)CC[C@@H]12 [ergocalciferol],effect on dermatitis,[2],no effect
"LL-37/hCAP18: endogenous 37 amino acid antimicrobial peptide released by proteolytic cleavage of hCAP18 (LLGDFFRKSKEKIGKEFKRIVQRIKDFLRNLVPRTES; Antibacterial peptide LL-37; UniProt P49913 134-170, looked up)",angiogenesis,[5],induces functionally important angiogenesis
